Measurements from US10350271B2, “Lipidated peptides for lowering blood glucose” (USTAV ORGANICKE CHEMIE A BIOCHEMIE AKADEMIE VED CR, V.V.I., priority 2014, dated 2019).
Square brackets hold non-standard residues; d marks the D form. Peptide text beside a SMILES is read from it. * marks the point of attachment. Phe(4-NO2) = N[C@@H](Cc1ccc([N+](=O)[O-])cc1)C(=O)O; Phe(3,4-Cl2) = N[C@@H](Cc1ccc(Cl)c(Cl)c1)C(=O)O; 1Nal = N[C@@H](Cc1cccc2ccccc12)C(=O)O; Stearoyl = CCCCCCCCCCCCCCCCCC(=O)*; Palmitoyl = CCCCCCCCCCCCCCCC(=O)*; Myristoyl = CCCCCCCCCCCCCC(=O)*; Nle = CCCC[C@H](N)C(=O)O

How the values were obtained:
C57BL/6 mice = experiment: Food intake in fasted mice after SC injection; type: in vivo; conditions: 5 mg/kg SC, 45 min after injection
Procedure, shortened: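 Overnight-fasted animals (food removed 17 h before dosing, water available) in individual cages got saline, PrRP or lipidated PrRP analogs SC at 1-10 mg/kg.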

rat PrRP receptor = target: T1, rat PrRP receptor (Rattus norvegicus, UniProt Q64121); experiment: Competitive binding in RC-4B/C rat pituitary cells (125I-rat PrRP31); conditions: for % of PrRP31, RC-4B/C rat pituitary cells: affinity relative to PrRP31; for Ki: RC-4B/C cells, displacement of 125I-rat PrRP31, read-out: Ki, RC-4B/C rat pituitary cells ^25I-rat PrRP31
T1 construct: host or cells: RC-4B/C rat pituitary cell line
T1 sequence (Q64121 1-370): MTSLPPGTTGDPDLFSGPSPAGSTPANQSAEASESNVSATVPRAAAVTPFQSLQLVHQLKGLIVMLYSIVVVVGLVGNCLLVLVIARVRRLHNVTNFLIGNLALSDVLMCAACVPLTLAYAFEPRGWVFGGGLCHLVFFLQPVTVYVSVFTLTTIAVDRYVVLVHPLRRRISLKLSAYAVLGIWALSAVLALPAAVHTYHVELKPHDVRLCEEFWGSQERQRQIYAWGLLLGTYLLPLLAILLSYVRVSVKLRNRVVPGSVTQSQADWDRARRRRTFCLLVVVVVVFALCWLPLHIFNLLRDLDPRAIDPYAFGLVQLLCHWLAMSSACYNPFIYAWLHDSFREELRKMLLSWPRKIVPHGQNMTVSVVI
Procedure, shortened: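 Intact rat pituitary RC-4B/C cells incubated 60 min at room temperature with […] rat 125I-PrRP31 and unlabeled analog (10^−11 to 10^−4 mol·l^−1) in HEPES pH 7.4 buffer. Cell-bound radioactivity γ-counted after NaOH lysis; one-site competition fit.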

[1] = target: T2, human PrRP receptor GPR10 (Homo sapiens, UniProt P49683); experiment: Competitive binding in CHO cells transfected with human GPR10 (human 125I-PrRP31); conditions: for % of PrRP31, GPR10 human receptor transfected in CHO cells: affinity relative to PrRP31; for Ki: CHO cells, human 125I-PrRP31, read-out: Ki, GPR10 human receptor transfected in CHO cells
T2 construct: host or cells: CHO cells
T2 sequence (P49683 1-370): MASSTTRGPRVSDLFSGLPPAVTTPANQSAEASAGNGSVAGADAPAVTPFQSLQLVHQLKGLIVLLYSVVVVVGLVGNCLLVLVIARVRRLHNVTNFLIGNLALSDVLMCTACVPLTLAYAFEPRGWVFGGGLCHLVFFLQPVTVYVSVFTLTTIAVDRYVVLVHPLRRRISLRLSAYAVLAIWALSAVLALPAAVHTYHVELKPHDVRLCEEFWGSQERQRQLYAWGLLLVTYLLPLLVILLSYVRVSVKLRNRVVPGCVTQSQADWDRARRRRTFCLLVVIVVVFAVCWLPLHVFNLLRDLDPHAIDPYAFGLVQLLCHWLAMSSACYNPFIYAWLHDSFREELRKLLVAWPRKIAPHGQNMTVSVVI
Procedure, shortened: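 GPR10-transfected CHO cells (40-80 thousand/well) incubated 60 min at room temperature with 5×10^-11 mol·l^-1 human 125I-PrRP31 and unlabeled analog at 10^-11 to 10^-4 mol·l^-1 in Tris binding buffer pH 7.4. Cells solubilized in 0.1 mol/l NaOH, γ-counted; one-site nonlinear regression fit.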

CCCCCCCCCCCCCCCCCC(=O)N[C@@H](CO)C(=O)N[C@@H](CCCNC(=N)N)C(=O)N[C@@H](C)C(=O)N[C@@H](Cc1c[nH]cn1)C(=O)N[C@@H](CCC(N)=O)C(=O)N[C@@H](Cc1c[nH]cn1)C(=O)N[C@@H](CO)C(=O)N[C@@H](CCCC)C(=O)N[C@@H](CCC(=O)O)C(=O)N[C@H](C(=O)N[C@@H](CCCNC(=N)N)C(=O)N[C@H](C(=O)N1CCC[C@H]1C(=O)N[C@@H](CC(=O)O)C(=O)N[C@H](C(=O)N[C@@H](CC(N)=O)C(=O)N1CCC[C@H]1C(=O)N[C@@H](C)C(=O)N[C@@H](Cc1c[nH]c2ccccc12)C(=O)N[C@@H](Cc1ccc(O)cc1)C(=O)N[C@H](C(=O)NCC(=O)N[C@@H](CCCNC(=N)N)C(=O)NCC(=O)N[C@H](C(=O)N[C@@H](CCCNC(=N)N)C(=O)N1CCC[C@H]1C(=O)N[C@H](C(=O)NCC(=O)N[C@@H](CCCNC(=N)N)C(=O)N[C@@H](Cc1ccccc1)C(N)=O)C(C)C)[C@@H](C)CC)[C@@H](C)O)[C@@H](C)CC)[C@@H](C)O)[C@@H](C)O [Analog 9] (Stearoyl-SRAHQHS[Nle]ETRTPDINPAWYTGRGIRPVGRF-NH2)
Food intake in mice % of saline-treated group (C57BL/6 mice): 3.5% | % of PrRP31, RC-4B/C rat pituitary cells (rat PrRP receptor): 514% | % of PrRP31, GPR10 human receptor transfected in CHO cells [1]: 7%

CCCCCCCCCCCCCCCC(=O)N[C@@H](CO)C(=O)N[C@@H](CCCNC(=N)N)C(=O)N[C@@H](C)C(=O)N[C@@H](Cc1c[nH]cn1)C(=O)N[C@@H](CCC(N)=O)C(=O)N[C@@H](Cc1c[nH]cn1)C(=O)N[C@@H](CO)C(=O)N[C@@H](CCCC)C(=O)N[C@@H](CCC(=O)O)C(=O)N[C@H](C(=O)N[C@@H](CCCNC(=N)N)C(=O)N[C@H](C(=O)N1CCC[C@H]1C(=O)N[C@@H](CC(=O)O)C(=O)N[C@H](C(=O)N[C@@H](CC(N)=O)C(=O)N1CCC[C@H]1C(=O)N[C@@H](C)C(=O)N[C@@H](Cc1c[nH]c2ccccc12)C(=O)N[C@@H](Cc1ccc(O)cc1)C(=O)N[C@H](C(=O)NCC(=O)N[C@@H](CCCNC(=N)N)C(=O)NCC(=O)N[C@H](C(=O)N[C@@H](CCCNC(=N)N)C(=O)N1CCC[C@H]1C(=O)N[C@H](C(=O)NCC(=O)N[C@@H](CCCNC(=N)N)C(=O)N[C@@H](Cc1cccc2ccccc12)C(N)=O)C(C)C)[C@@H](C)CC)[C@@H](C)O)[C@@H](C)CC)[C@@H](C)O)[C@@H](C)O [Analog 12] (Palmitoyl-SRAHQHS[Nle]ETRTPDINPAWYTGRGIRPVGR[1Nal]-NH2)
Food intake in mice % of saline-treated group (C57BL/6 mice): 13% | % of PrRP31, RC-4B/C rat pituitary cells (rat PrRP receptor): 111% | % of PrRP31, GPR10 human receptor transfected in CHO cells [1]: 91%

CCCCCCCCCCCCCC(=O)N[C@@H](CO)C(=O)N[C@@H](CCCNC(=N)N)C(=O)N[C@@H](C)C(=O)N[C@@H](Cc1c[nH]cn1)C(=O)N[C@@H](CCC(N)=O)C(=O)N[C@@H](Cc1c[nH]cn1)C(=O)N[C@@H](CO)C(=O)N[C@@H](CCCC)C(=O)N[C@@H](CCC(=O)O)C(=O)N[C@H](C(=O)N[C@@H](CCCNC(=N)N)C(=O)N[C@H](C(=O)N1CCC[C@H]1C(=O)N[C@@H](CC(=O)O)C(=O)N[C@H](C(=O)N[C@@H](CC(N)=O)C(=O)N1CCC[C@H]1C(=O)N[C@@H](C)C(=O)N[C@@H](Cc1c[nH]c2ccccc12)C(=O)N[C@@H](Cc1ccc(O)cc1)C(=O)N[C@H](C(=O)NCC(=O)N[C@@H](CCCNC(=N)N)C(=O)NCC(=O)N[C@H](C(=O)N[C@@H](CCCNC(=N)N)C(=O)N1CCC[C@H]1C(=O)N[C@H](C(=O)NCC(=O)N[C@@H](CCCNC(=N)N)C(=O)N[C@@H](Cc1ccc(Cl)c(Cl)c1)C(N)=O)C(C)C)[C@@H](C)CC)[C@@H](C)O)[C@@H](C)CC)[C@@H](C)O)[C@@H](C)O [Analog 14] (Myristoyl-SRAHQHS[Nle]ETRTPDINPAWYTGRGIRPVGR[Phe(3,4-Cl2)]-NH2)
Food intake in mice % of saline-treated group (C57BL/6 mice): 13% | Ki (rat PrRP receptor): 1.79 ± 1.02 nM | % of PrRP31, RC-4B/C rat pituitary cells (rat PrRP receptor): 275% | Ki [1]: 0.95 ± 0.33 nM | % of PrRP31, GPR10 human receptor transfected in CHO cells [1]: 409%

CCCCCCCCCCCCCCCC(=O)N[C@@H](CO)C(=O)N[C@@H](CCCNC(=N)N)C(=O)N[C@@H](C)C(=O)N[C@@H](Cc1c[nH]cn1)C(=O)N[C@@H](CCC(N)=O)C(=O)N[C@@H](Cc1c[nH]cn1)C(=O)N[C@@H](CO)C(=O)N[C@@H](CCCC)C(=O)N[C@@H](CCC(=O)O)C(=O)N[C@H](C(=O)N[C@@H](CCCNC(=N)N)C(=O)N[C@H](C(=O)N1CCC[C@H]1C(=O)N[C@@H](CC(=O)O)C(=O)N[C@H](C(=O)N[C@@H](CC(N)=O)C(=O)N1CCC[C@H]1C(=O)N[C@@H](C)C(=O)N[C@@H](Cc1c[nH]c2ccccc12)C(=O)N[C@@H](Cc1ccc(O)cc1)C(=O)N[C@H](C(=O)NCC(=O)N[C@@H](CCCNC(=N)N)C(=O)NCC(=O)N[C@H](C(=O)N[C@@H](CCCNC(=N)N)C(=O)N1CCC[C@H]1C(=O)N[C@H](C(=O)NCC(=O)N[C@@H](CCCNC(=N)N)C(=O)N[C@@H](Cc1ccc(Cl)c(Cl)c1)C(N)=O)C(C)C)[C@@H](C)CC)[C@@H](C)O)[C@@H](C)CC)[C@@H](C)O)[C@@H](C)O [Analog 15] (Palmitoyl-SRAHQHS[Nle]ETRTPDINPAWYTGRGIRPVGR[Phe(3,4-Cl2)]-NH2)
Food intake in mice % of saline-treated group (C57BL/6 mice): 5% | Ki (rat PrRP receptor): 1.3 ± 0.29 nM | % of PrRP31, RC-4B/C rat pituitary cells (rat PrRP receptor): 379% | Ki [1]: 1.05 ± 0.41 nM | % of PrRP31, GPR10 human receptor transfected in CHO cells [1]: 370%

CCCCCCCCCCCCCCCC(=O)N[C@@H](CO)C(=O)N[C@@H](CCCNC(=N)N)C(=O)N[C@@H](C)C(=O)N[C@@H](Cc1c[nH]cn1)C(=O)N[C@@H](CCC(N)=O)C(=O)N[C@@H](Cc1c[nH]cn1)C(=O)N[C@@H](CO)C(=O)N[C@@H](CCCC)C(=O)N[C@@H](CCC(=O)O)C(=O)N[C@H](C(=O)N[C@@H](CCCNC(=N)N)C(=O)N[C@H](C(=O)N1CCC[C@H]1C(=O)N[C@@H](CC(=O)O)C(=O)N[C@H](C(=O)N[C@@H](CC(N)=O)C(=O)N1CCC[C@H]1C(=O)N[C@@H](C)C(=O)N[C@@H](Cc1c[nH]c2ccccc12)C(=O)N[C@@H](Cc1ccc(O)cc1)C(=O)N[C@H](C(=O)NCC(=O)N[C@@H](CCCNC(=N)N)C(=O)NCC(=O)N[C@H](C(=O)N[C@@H](CCCNC(=N)N)C(=O)N1CCC[C@H]1C(=O)N[C@H](C(=O)NCC(=O)N[C@@H](CCCNC(=N)N)C(=O)N[C@@H](Cc1ccc([N+](=O)[O-])cc1)C(N)=O)C(C)C)[C@@H](C)CC)[C@@H](C)O)[C@@H](C)CC)[C@@H](C)O)[C@@H](C)O [Analog 18] (Palmitoyl-SRAHQHS[Nle]ETRTPDINPAWYTGRGIRPVGR[Phe(4-NO2)]-NH2)
Food intake in mice % of saline-treated group (C57BL/6 mice): 0.7% | Ki (rat PrRP receptor): 0.58 ± 0.1 nM | % of PrRP31, RC-4B/C rat pituitary cells (rat PrRP receptor): 850% | Ki [1]: 0.77 ± 0.28 nM | % of PrRP31, GPR10 human receptor transfected in CHO cells [1]: 505%
